Reference: ChEMBL document CHEMBL5512608, “Therapeutic potential of targeting polo-like kinase 4” (Eur J Med Chem, 2024)

Experiments:
NCI-H1299 = assay: Antiproliferative activity against human NCI-H1299 cells assessed as reduction in cell viability measured after 72 hrs by AlamarBlue assay; type: functional, cell-based; details: NCI-H1299, 72 h
U-87 MG = assay: Antiproliferative activity against human U-87 MG cells assessed as reduction in cell viability measured after 72 hrs by AlamarBlue assay; type: functional, cell-based, U-87MG ATCC
A2780 = assay: Antiproliferative activity against human A2780 cells assessed as reduction in cell viability measured after 72 hrs by AlamarBlue assay; type: functional, cell-based; details: A2780, 72 h
HCT-116 = assay: Antiproliferative activity against human HCT-116 cells assessed as reduction in cell viability measured after 72 hrs by AlamarBlue assay; type: functional, cell-based; details: HCT-116, 72 h
MDA-MB-231 = assay: Antiproliferative activity against human MDA-MB-231 cells assessed as reduction in cell viability measured after 72 hrs by AlamarBlue assay; type: functional, cell-based; details: MDA-MB-231, 72 h
[1] = biological target: T1, Serine/threonine-protein kinase PLK4 (Homo sapiens, UniProt O00444); assay: Inhibition of PLK4 (unknown origin)
T1 sequence (O00444 whole entry): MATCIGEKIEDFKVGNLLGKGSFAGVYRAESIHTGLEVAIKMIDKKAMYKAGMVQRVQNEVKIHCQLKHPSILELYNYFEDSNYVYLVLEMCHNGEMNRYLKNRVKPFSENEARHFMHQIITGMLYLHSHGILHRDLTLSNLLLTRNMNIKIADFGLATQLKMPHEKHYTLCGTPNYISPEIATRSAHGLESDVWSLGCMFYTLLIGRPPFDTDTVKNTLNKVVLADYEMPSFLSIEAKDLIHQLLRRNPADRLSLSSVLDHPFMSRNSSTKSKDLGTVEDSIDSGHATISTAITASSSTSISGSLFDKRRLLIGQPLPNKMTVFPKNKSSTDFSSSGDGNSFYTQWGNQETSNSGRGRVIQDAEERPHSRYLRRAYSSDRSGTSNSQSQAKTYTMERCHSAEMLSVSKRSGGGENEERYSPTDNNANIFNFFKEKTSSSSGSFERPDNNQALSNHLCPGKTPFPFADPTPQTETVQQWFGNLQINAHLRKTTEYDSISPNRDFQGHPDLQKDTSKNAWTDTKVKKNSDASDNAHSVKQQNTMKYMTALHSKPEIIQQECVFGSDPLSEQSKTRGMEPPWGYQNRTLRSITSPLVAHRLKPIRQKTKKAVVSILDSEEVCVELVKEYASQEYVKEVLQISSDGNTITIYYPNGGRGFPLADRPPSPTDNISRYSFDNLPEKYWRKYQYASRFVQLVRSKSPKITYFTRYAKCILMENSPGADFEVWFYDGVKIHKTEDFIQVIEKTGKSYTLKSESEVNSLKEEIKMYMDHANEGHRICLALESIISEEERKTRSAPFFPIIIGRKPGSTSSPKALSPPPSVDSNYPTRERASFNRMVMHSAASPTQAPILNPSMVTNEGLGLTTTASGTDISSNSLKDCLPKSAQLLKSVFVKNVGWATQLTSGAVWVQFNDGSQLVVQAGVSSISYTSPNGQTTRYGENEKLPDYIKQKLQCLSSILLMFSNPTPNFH

[2] = Antiproliferative activity against human TNBC cells assessed as reduction in cell viability; type: functional, cell-based; details: Breast carcinoma cell
MDA-MB-468 = assay: Antitumor activity against human MDA-MB-468 cells xenografted in nude mouse assessed as tumor growth inhibition at 20 mg/kg, po relative to control; type: functional; details: read-out: TGI
[3] = biological target: T1, Serine/threonine-protein kinase PLK4; assay: Binding affinity to PLK4 (unknown origin) assessed as inhibition constant
[4] = Selectivity ratio of Ki for PLK4 (unknown origin) to Ki for AURORA-A (unknown origin)
[5] = biological target: Serine/threonine-protein kinase PLK2 (Homo sapiens, UniProt Q9NYY3); assay: Inhibition of full length PLK2 (unknown origin)
Chain of Serine/threonine-protein kinase PLK2 (Q9NYY3 whole entry): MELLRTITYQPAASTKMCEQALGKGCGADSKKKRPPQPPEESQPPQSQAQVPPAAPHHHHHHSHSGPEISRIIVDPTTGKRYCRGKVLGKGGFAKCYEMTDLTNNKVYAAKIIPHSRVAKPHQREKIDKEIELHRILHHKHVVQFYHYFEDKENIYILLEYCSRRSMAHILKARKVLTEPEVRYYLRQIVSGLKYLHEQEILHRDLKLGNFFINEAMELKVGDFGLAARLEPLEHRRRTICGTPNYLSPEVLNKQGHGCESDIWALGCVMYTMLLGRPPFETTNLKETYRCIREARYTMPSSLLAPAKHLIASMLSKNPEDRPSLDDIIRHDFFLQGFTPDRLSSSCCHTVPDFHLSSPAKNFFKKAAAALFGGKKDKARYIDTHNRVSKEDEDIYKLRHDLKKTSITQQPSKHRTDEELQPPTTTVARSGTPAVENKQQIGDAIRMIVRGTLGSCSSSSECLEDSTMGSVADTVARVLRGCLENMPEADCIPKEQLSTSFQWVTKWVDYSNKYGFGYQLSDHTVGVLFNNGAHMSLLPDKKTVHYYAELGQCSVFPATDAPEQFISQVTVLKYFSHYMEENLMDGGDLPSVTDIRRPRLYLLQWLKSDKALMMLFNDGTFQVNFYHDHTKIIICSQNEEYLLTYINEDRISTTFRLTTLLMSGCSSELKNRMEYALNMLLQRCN

**Q.** Which IC50 (NCI-H1299) does the source give for `COCCOc1ccc2cc1OCC(=O)N(C)CCCN(C)Cc1c[nH]c3ncnc(c13)N2` here?
**A.** 5 nM

**Q.** What about the IC50 (U-87 MG) of the same molecule?
**A.** 5 nM

**Q.** And the IC50 (A2780)?
**A.** 5 nM

**Q.** What about the IC50 (HCT-116) of the same molecule?
**A.** 5 nM

**Q.** And the IC50 (MDA-MB-231)?
**A.** 5 nM

**Q.** With `c1ccc(CNc2nc(Nc3cccc(N4CCOCC4)c3)nc3[nH]ncc23)cc1` as the molecule, how does the IC50 [1] read?
**A.** 2100 nM

**Q.** Which IC50 [2] does the source give for `CC(=O)Nc1nccc(-c2ccc3c(/C=C/c4ccc(CN(C)C)cc4)n[nH]c3c2)n1` here?
**A.** 60 nM

**Q.** What about the inhibition in vivo at 20 mg/kg (MDA-MB-468) of the same molecule?
**A.** 80%

**Q.** For `COc1c(Nc2cc(C)[nH]n2)nc(Sc2ccc(NC(=O)C3CC3)cc2)nc1N1CCN(C)CC1`, which Ki [3] is on record?
**A.** 15 nM

**Q.** And the Ratio Ki [4]?
**A.** 15

**Q.** For `COc1c(Nc2cc(C)[nH]n2)nc(Sc2ccc(S(=O)(=O)Cc3cccc([N+](=O)[O-])c3F)cc2F)nc1N1CCCCC1`, which Ratio Ki [4] is on record?
**A.** 2100

**Q.** With `CNC(=O)c1ccccc1Nc1nc(Nc2ccc(S(C)(=O)=O)cc2)nc2[nH]ncc12` as the molecule, how does the IC50 [1] read?
**A.** 27 nM

**Q.** For `CN(C)Cc1ccc(/C=C/c2n[nH]c3cc(-c4ccnc(N)n4)ccc23)cc1`, which IC50 [2] is on record?
**A.** 60 nM

**Q.** What about the IC50 [1] of the same molecule?
**A.** 11.2 nM

**Q.** What about the inhibition in vivo at 20 mg/kg (MDA-MB-468) of the same molecule?
**A.** 80%

**Q.** For `Cn1c2ccccc2c2c3c(c4c5ccccc5n(CCC#N)c4c21)CNC3=O` [GO-6976], which IC50 [5] is on record?
**A.** > 19000 nM
